Results taken from article PMC9331678 (Molecules, 2022).

Assay: 24 h therapeutic monitoring and noncompartmental pharmacokinetics in chronic lymphocytic leukemia patients receiving IBR
Conditions: plasma; for concentration at 2 h: 2 h postdose; for concentration at 4 h: 4 h postdose; for concentration at 23 h: 23 h postdose; for concentration at 24 h: 24 h postdose; for k el / half-life / MRT last / MRT / Cmax / Tmax / AUCPEO AUC %Extrapolation Obs / AUCPEP AUC %Extrapolation Pred / AUMCIFO AUMC Infinity Obs / AUMCIFP AUMC Infinity Pred / AUMCLST AUMC to Last Nonzero Conc / AUMCPEO AUMC %Extrapolation Obs / AUMCPEP AUMC % Extrapolation Pred / TMAX Time of CMAX: steady state
[1] = human, oral, 420 mg, Conc., subj=1 (420 mg IBR per day)
[2] = human, oral, 420 mg, Patient 1, 420 mg IBR per day
[3] = human, oral, 420 mg, Patient 2, 420 mg IBR per day
[4] = human, oral, 420 mg/day, Conc., subj=2 (420 mg IBR per day)

- concentration at 2 h [1]: 185 nM
- concentration at 4 h [1]: 143 nM
- concentration at 23 h [1]: 41.3 nM
- concentration at 24 h [1]: 34.6 nM
- concentration at 0.5 h (human, oral, 420 mg, Conc., subj=2 (420 mg IBR per day), 0.5 h postdose): 71.5 nM
- concentration at 1 h (human, oral, 420 mg, Conc., subj=2 (420 mg IBR per day), 1 h postdose): 254 nM
- concentration at 2 h (human, oral, 420 mg, Conc., subj=2 (420 mg IBR per day)): 227 nM
- k el (human, oral, 420 mg, LAMZ Lambda z, subj=1 (420 mg IBR per day)): 1.9e-05 s⁻¹
- k el (human, oral, 420 mg, LAMZ Lambda z, subj=2 (420 mg IBR per day)): 3.6e-05 s⁻¹
- half-life (human, oral, 420 mg, LAMZHL Half-Life Lambda z, subj=1 (420 mg IBR per day)): 10.1 h
- half-life (human, oral, 420 mg, LAMZHL Half-Life Lambda z, subj=2 (420 mg IBR per day)): 5.35 h
- MRT last (human, oral, 420 mg, MRT0–24, Patient 1, 420 mg IBR per day): 7.07 h
- MRT last (human, oral, 420 mg, MRT0–24, Patient 2, 420 mg IBR per day): 4.6 h
- MRT (human, oral, 420 mg, MRTEVIFO MRT Extravasc Infinity Obs, subj=1 (420 mg IBR per day)): 12.7 h
- MRT (human, oral, 420 mg, MRTEVIFO MRT Extravasc Infinity Obs, subj=2 (420 mg IBR per day)): 5.65 h
- MRT (human, oral, 420 mg, MRTEVIFP MRT Extravasc Infinity Pred, subj=1 (420 mg IBR per day)): 12.9 h
- MRT (human, oral, 420 mg, MRTEVIFP MRT Extravasc Infinity Pred, subj=2 (420 mg IBR per day)): 5.63 h
- MRT (human, oral, 420 mg, MRTEVLST MRT Extravasc to Last Nonzero Conc, subj=1 (420 mg IBR per day)): 7.07 h
- MRT (human, oral, 420 mg, MRTEVLST MRT Extravasc to Last Nonzero Conc, subj=2 (420 mg IBR per day)): 4.6 h
- Cmax [2]: 185 nM
- Cmax [3]: 254 nM
- k el (human, oral, 420 mg, ke, Patient 1, 420 mg IBR per day): 1.92e-05 s⁻¹
- k el (human, oral, 420 mg, ke, Patient 2, 420 mg IBR per day): 3.61e-05 s⁻¹
- half-life (human, oral, 420 mg, t1/2, Patient 1, 420 mg IBR per day): 10.1 h
- half-life (human, oral, 420 mg, t1/2, Patient 2, 420 mg IBR per day): 5.35 h
- Tmax [2]: 2 h
- Tmax [3]: 1 h
- concentration at 4 h [4]: 172 nM
- concentration at 23 h [4]: 14.6 nM
- concentration at 24 h [4]: 13.2 nM
- AUCPEO AUC %Extrapolation Obs (subj=1 (420 mg IBR per day)): 17.7444%
- AUCPEP AUC %Extrapolation Pred (subj=1 (420 mg IBR per day)): 18.5268%
- AUMCIFO AUMC Infinity Obs (subj=1 (420 mg IBR per day)): 36155.1204 h2*nmol/L
- AUMCIFP AUMC Infinity Pred (subj=1 (420 mg IBR per day)): 37213.6967 h2*nmol/L
- AUMCLST AUMC to Last Nonzero Conc (subj=1 (420 mg IBR per day)): 16593.9650 h2*nmol/L
- AUMCPEO AUMC %Extrapolation Obs (subj=1 (420 mg IBR per day)): 54.1034%
- AUMCPEP AUMC % Extrapolation Pred (subj=1 (420 mg IBR per day)): 55.4090%
- TMAX Time of CMAX (subj=1 (420 mg IBR per day)): 2.0000 h
- AUCPEO AUC %Extrapolation Obs (subj=2 (420 mg IBR per day)): 3.8711%
- AUCPEP AUC %Extrapolation Pred (subj=2 (420 mg IBR per day)): 3.8177%
- AUMCIFO AUMC Infinity Obs (subj=2 (420 mg IBR per day)): 14854.1469 h2*nmol/L
- AUMCIFP AUMC Infinity Pred (subj=2 (420 mg IBR per day)): 14807.8422 h2*nmol/L
- AUMCLST AUMC to Last Nonzero Conc (subj=2 (420 mg IBR per day)): 11625.7539 h2*nmol/L
- AUMCPEO AUMC %Extrapolation Obs (subj=2 (420 mg IBR per day)): 21.7340%
- AUMCPEP AUMC % Extrapolation Pred (subj=2 (420 mg IBR per day)): 21.4892%
- TMAX Time of CMAX (subj=2 (420 mg IBR per day)): 1.0000 h
- AUCPEO AUC %Extrapolation Obs (subj=3 (280 mg IBR per day)): 4.3920%
- AUCPEP AUC %Extrapolation Pred (subj=3 (280 mg IBR per day)): 4.2856%
- AUMCIFO AUMC Infinity Obs (subj=3 (280 mg IBR per day)): 10834.3795 h2*nmol/L
- AUMCIFP AUMC Infinity Pred (subj=3 (280 mg IBR per day)): 10766.9678 h2*nmol/L
- AUMCLST AUMC to Last Nonzero Conc (subj=3 (280 mg IBR per day)): 8171.9228 h2*nmol/L
- AUMCPEO AUMC %Extrapolation Obs (subj=3 (280 mg IBR per day)): 24.5741%
- AUMCPEP AUMC % Extrapolation Pred (subj=3 (280 mg IBR per day)): 24.1019%
- TMAX Time of CMAX (subj=3 (280 mg IBR per day)): 2.0000 h
- time after drug intake at which maximum concentrations were attained (three chronic lymphocyte leukemia patients): ≤ 2 h
SMILES: Nc1ncnc2c1c(-c1ccc(Oc3ccccc3)cc1)nn2[C@@H]1CCCN(C(=O)C(O)CO)C1 (stereo partly drawn) [Dihydrodiol Ibrutinib, 1-[(3R)-3-[4-amino-3-(4-phenoxyphenyl)pyrazolo[3,4-d]pyrimidin-1-yl]piperidin-1-yl]-2,3-dihydroxypropan-1-one]
